The values that follow come from patent publication US20240325319A1, “INHIBITORS OF AMYLOID BETA OLIGOMERIZATION AND THERAPEUTIC USES THEREOF” (Northwestern University, priority 2021, published 2024).

Entries after “also recorded” stand apart in the source; their conditions may differ. Where a SMILES comes first, the peptide text is derived from it. The star is where a group is joined. Cbz = O=C(OCc1ccccc1)*

One test has as its system acidic lysosomes. The experiment in a line: Lysotracker labelling of acidic compartments in hippocampal neurons. It is filed as cell-based, rat. The note with it: addition of control Bafilomycin A. The procedure:
FIG. 24. Mature E18 hippocampal neurons were treated 3 μM NU-9, and subsequently labelled with lysotracker. A) total immunofluorescence (integrated density), B) mean intensity, C) average size of acidic compartments, D) number of acidic compartments.

In the next test the test system is AβOs bound to neurons. The test can be described thus: AβOs bound to dendrites of hippocampal neurons treated with Aβ42 monomer (immunofluorescence, NU2/NU4). It is filed as cell-based, rat. As to conditions: for influence of lysosome acidification inhibitor on the effect of NU-9: Bafilomycin A 100 nM, 30 min prior to 3 μM NU-9, then 500 nM Aβ monomer 30 min; for AβO accumulation under cathepsin L inhibition: 10 μM cathepsin L inhibitor 1 h, 500 nM Aβ 30 min.

Another test addresses cathepsin B (Homo sapiens, UniProt P07858). The test can be described thus: Purified cathepsin B enzyme activity (Z-RR-AMC to 7-AMC). It is filed as biochemical. As to conditions: same concentration range (0.0003-30 μM). The method, then:
FIG. 28. A) 0.0003-30 μM NU-9 was combined with purified cathepsin B enzyme in the presence of the cathepsin B substrate Z-RR-AMC. Cathepsin B enzyme activity was measured by the rate of 7-AMC production by fluorescence. Percent change in rate with NU-9 was quantified in the graph. […] B) Mature hippocampal neurons were treated with NU-9 for 30 minutes, then Magic Red was used to monitor intracellular cathepsin L activity. Cells were treated in 3 wells.

A further test concerns the target cathepsin L (Homo sapiens, UniProt P07711). The test can be described thus: Purified cathepsin L enzyme activity (Z-FR-AMC to 7-AMC). The note with it: same concentration range (0.0003-150 μM). The class given is biochemical. The procedure:
FIG. 26. A) 0.0003-150 μM NU-9 was combined with purified cathepsin L enzyme in the presence of the cathepsin L substrate Z-FR-AMC. Cathepsin L enzyme activity was measured by the rate of 7-AMC production by fluorescence. Percent change in rate was quantified in the graph. […] B) Mature hippocampal neurons were treated with NU-9 for 30 minutes, then Magic Red was used to monitor intracellular cathepsin L activity. Cells were treated in 3 wells, and 9-22 images were analyzed per condition.
No effect of 0.0003-150 μM NU-9 was observed on the cathepsin L activity as measured by the production rate of 7-AMC from Z-FR-AMC by purified cathepsin L enzyme.

Chain of cathepsin L (P07711 114-333, species assumed): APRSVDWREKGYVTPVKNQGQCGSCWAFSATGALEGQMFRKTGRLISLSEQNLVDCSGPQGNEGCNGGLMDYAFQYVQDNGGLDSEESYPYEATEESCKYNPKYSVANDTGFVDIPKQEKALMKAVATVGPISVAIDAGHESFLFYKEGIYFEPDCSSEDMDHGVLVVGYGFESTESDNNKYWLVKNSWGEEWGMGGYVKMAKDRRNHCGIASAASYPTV

Take `CO/C1=C\C(C)=C\[C@@H](C)[C@@H](O)[C@@H](C)C/C(C)=C/C=C/[C@H](OC)[C@@H]([C@@H](C)[C@@H](O)[C@H](C)[C@@]2(O)C[C@@H](O)[C@H](C)[C@@H](C(C)C)O2)OC1=O` [Bafilomycin A]: the “integrated fluorescent density of lysotracker, control” value with acidic lysosomes was “significantly reduced”. Besides, the “neuron-binding AβOs with lysosome inhibitor in the absence of NU-9” value in the test with AβOs bound to neurons (100 nM bafilomycin A 30 min, Aβ monomer 500 nM 30 min, vs Aβ monomer alone) is “did not lead to the formation of significantly more neuron-binding AβOs”. Also, the results for the “influence of lysosome acidification inhibitor on the effect of NU-9” value in the test with AβOs bound to neurons and in the test on AβOs bound to neurons (listed as Bafilomyicin A) were “prevents the effect of NU-9 on AβOs bound to synapses; also recorded: significantly prevented the effect of NU-9” and “prevented the effect of NU-9”, respectively.

With `CCCNC(=O)[C@H]1O[C@@H]1C(=O)N[C@H](C(=O)N1CCC[C@H]1C(=O)O)[C@@H](C)CC` [CA-074], the “cathepsin B activity, standard inhibitor” value on cathepsin B was “Clear inhibition of enzyme activity”. For the same compound, in the test with AβOs bound to neurons (10 μM CA-074 24 h, 3 μM NU-9 30 min, 500 nM Aβ monomer 30 min), the “influence of cathepsin B inhibitor on the effect of NU-9” value is “prevented the effect of NU-9”.

As to `CC(C)C[C@H](NC(=O)[C@H]1O[C@@H]1C(=O)O)C(=O)NCCCCN=C(N)N` [E64], the “number of bound AβOs, inhibitor alone” value in the test on AβOs bound to neurons (E64 10 μM, 24 h, Aβ monomer 500 nM 30 min) is recorded as “significantly reduced the number of bound AβOs”. The “influence of cysteine cathepsin inhibitor on the effect of NU-9” value with AβOs bound to neurons (E64 10 μM, 24 h, then NU-9 3 μM 30 min, Aβ monomer 500 nM 30 min) is reported as “did not significantly change the effectiveness of NU-9; also recorded: does not prevent the effect of NU-9”.

As for `CC(C)C[C@@H](C=O)NC(=O)[C@H](CC(C)C)NC(=O)[C@H](CC(C)C)NC(=O)OCc1ccccc1` [MG132] (Cbz-Leu-Leu-Leu-aldehyde), the “formation of AβOs under proteasome inhibition” value in the test on AβOs bound to neurons (100 nM MG132 30-min pre-treatment, 500 nM Aβ42) is “no effect on formation of AβOs”. For the same compound, in the test with AβOs bound to neurons (100 nM MG132 30 min, 3 μM NU-9 30 min, 500 nM Aβ42), the “influence of proteasome inhibition on reduction of AβO accumulation by NU-9” value was “no effect on formation of AβOs or reduction of AβO accumulation by NU-9”.

Turning to `O=C[C@H](Cc1ccc(O)cc1)NC(=O)[C@H](Cc1ccccc1)NC(=O)OCc1ccccc1` [Z-FY-CHO] (Cbz-Phe-Tyr-aldehyde), the “cathepsin L activity, standard inhibitor” value on cathepsin L is “reduced cathepsin L activity”. Further, the “AβO accumulation under cathepsin L inhibition” value is “mimicked the effect of NU-9” with AβOs bound to neurons and “prevents AβO accumulation” with AβOs bound to neurons (listed as Cathepsin L inhibitor).

Consider `Ic1cccc(/C=N/Nc2nc(N3CCOCC3)nc(N(c3ccccc3)c3ccccc3)n2)c1` [vacuolin-1], for which the “influence of inhibition of lysosome maturation and exocytosis on NU-9” value in the test on AβOs bound to neurons (1 μM vacuolin-1 1 h pre-treatment, 3 μM NU-9 30 min, 500 nM Aβ42) is “prevented the effectiveness of NU-9”.

Regarding MDL-28170, the “AβO accumulation under calpain inhibition” value in the test with AβOs bound to neurons (10 μM MDL-28170 30 min, 500 nM Aβ42 30 min) is “reducing AβO accumulation; also recorded: may mimic the effect of NU-9”.
